{"source": "patent US20170326146A1", "about": "“METHODS OF TREATING HEPATITIS B INFECTIONS AND RELATED DOSAGE REGIMES” (ContraVir Pharmaceuticals, Inc., priority 2016, published 2017)", "key": {"[1]": {"experiment": "Pharmacokinetics of Compound I in human plasma: plasma concentrations of Compound I and tenofovir", "format": "in vivo", "set-up": "unit not given here", "details": "single oral 5 mg dose of Compound I, individual subjects", "protocol": "The pharmacokinetics of Compound I in human plasma was also evaluated. Plasma concentrations of Compound I and tenofovir (TFV) were measured at various time points up to 24 h after oral administration of a single 5 mg dose of Compound I. The results are summarized in Table 2."}, "[2]": {"experiment": "Phase I clinical trial with healthy adults: safety, blood pressure, ECG", "format": "in vivo, human", "details": "healthy subjects", "protocol": "Eight healthy subjects were given Compound I orally at a daily dose of 5 mg for administration periods of between 9 and 14 days. […] Additionally, a placebo was administered to four healthy subjects for administration periods of between 9 and 14 days. The subjects were evaluated for changes in baseline blood pressure (FIGS. 1A and 1B: Changes in systolic and diastolic blood pressure, respectively, after administration of 5 mg of Compound I; FIGS. 2A and 2B: Changes in systolic and diastolic blood pressure, respectively, after administration of 10 mg of Compound I; FIGS. 3A and 3B: Changes in systolic and diastolic blood pressure, respectively, after administration of placebo). Furthermore, electrocardiograms (ECGs) were recorded to evaluate the change in baseline of heart rate, RR intervals, PR intervals, QRS duration and QTcF in each subject (FIGS. 4A and 4B: Changes in heart rate and RR interval, respectively, after administration of 5 mg of Compound I; FIGS. 5A and 5B: Changes in heart rate and RR interval, respectively, after administration of 10 mg of Compound I; FIGS. 6A and 6B: Changes in heart rate and RR interval, respectively, after administration of placebo; FIGS. 7A, 7B, and 7C: Changes in PR interval, QRS duration, and QTcF duration, respectively, after administration of 5 mg of Compound I; FIGS. 8A, 8B and 8C: Changes in PR interval, QRS duration, and QTcF duration, respectively, after administration of 10 mg of Compound I; FIGS. 9A, 9B and 9C: Changes in PR interval, QRS duration, and QTcF duration, respectively, after administration of placebo). In the Figures, as well as in Table 2 below, individual subjects are identified by 6-digit numbers. Subjects that were administered 5 mg of Compound I, 10 mg of Compound I, or a placebo, were monitored for between 15 and 18 days, between 9 and 11 days, or between 9 and 18 days after initiation of the study, respectively. […] The baselines are defined as the last variable assessment prior to initiation of the study."}, "[3]": {"details": "5 mg or 10 mg daily, dose groups and placebo not told apart"}}, "note": "Values joined by “and” are separate entries in the source; they are usually repeats but may differ in a detail not shown here. Equal values may be shown once.", "data": [{"compound": "CCCCCCCCCCCCCCCCOCCCOP(=O)(O)CO[C@H](C)Cn1cnc2c(N)ncnc21", "note": "[Compound I, 3-(hexadecyloxy)propyl hydrogen ((R)-1-(6-amino-9H-purin 9-yl)propan-2-yloxy)methylphosphonate]", "values": [{"measurement": "Pharmacokinetic plasma concentration of Compound I", "setting": "[1]; 0.5 hours post-dose", "result": "0.303 and 0.567 and <LLOQ < (0.150) (4×) and 1.090 and 0.893"}, {"measurement": "Pharmacokinetic plasma concentration of Compound I", "setting": "[1]; 1 hour post-dose", "result": "1.310 and 0.592 and 2.980 and 2.080 and <LLOQ < (0.150) (2×) and 1.570 and 0.743"}, {"measurement": "Pharmacokinetic plasma concentration of Compound I", "setting": "[1]; 2 hours post-dose", "result": "2.030 and 0.310 and 8.530 and 1.530 and 0.753 and 1.820 and 0.180 and 2.180"}, {"measurement": "Pharmacokinetic plasma concentration of Compound I", "setting": "[1]; 2.5 hours post-dose", "result": "0.412 and 1.550 and 1.350 and 5.250 and 1.340 and 1.500 and 0.206 and 1.070"}, {"measurement": "Pharmacokinetic plasma concentration of Compound I", "setting": "[1]; 3 hours post-dose", "result": "2.080 and 1.690 and 1.260 and 1.440 and 4.270 and 1.640 and 4.430 and 0.197"}, {"measurement": "Pharmacokinetic plasma concentration of Compound I", "setting": "[1]; 4 hours post-dose", "result": "1.180 and 2.460 and 0.712 and 0.508 and 1.500 and 0.520 and 1.540 and <LLOQ < (0.150)"}, {"measurement": "Pharmacokinetic plasma concentration of Compound I", "setting": "[1]; 6 hours post-dose", "result": "0.448 and 0.891 and 0.179 and <LLOQ < (0.150) (3×) and 0.372 and 0.389"}, {"measurement": "Pharmacokinetic plasma concentration of Compound I", "setting": "[1]; 10 hours post-dose", "result": "<LLOQ < (0.150)"}, {"measurement": "Pharmacokinetic plasma concentration of Compound I", "setting": "[1]; 12 hours post-dose", "result": "<LLOQ < (0.150)"}, {"measurement": "Pharmacokinetic plasma concentration of Compound I", "setting": "[1]; 15 hours post-dose", "result": "<LLOQ < (0.150)"}, {"measurement": "Pharmacokinetic plasma concentration of Compound I", "setting": "[1]; 18 hours post-dose", "result": "<LLOQ < (0.150)"}, {"measurement": "Pharmacokinetic plasma concentration of Compound I", "setting": "[1]; 24 hours post-dose", "result": "<LLOQ < (0.150)"}, {"measurement": "Pharmacokinetic plasma concentration of Compound I", "setting": "[1]; Pre-dose", "result": "<LLOQ < (0.150)"}, {"measurement": "Adverse events reported", "setting": "[2]; [3]", "result": "Few, minor adverse events (i.e., mild dizziness, headache or nausea)"}, {"measurement": "ECG abnormalities reported", "setting": "[2]; [3]", "result": "few ECG abnormalities (i.e., intraventricular conduction defect, frequent ventricular complexes and ectopic supraventricular rhythm)"}, {"measurement": "Premature discontinuation of the study", "setting": "[2]; 5 mg or 10 mg of Compound I daily or placebo", "result": "No subjects needed to discontinue the study prematurely"}, {"measurement": "Safety and tolerability", "setting": "[2]; oral daily dose of 5 mg for 9-14 days", "result": "safe and well-tolerated"}, {"measurement": "Safety and tolerability", "setting": "[2]; oral daily dose of 10 mg for 9-14 days", "result": "safe and well-tolerated"}]}, {"compound": "C[C@H](Cn1cnc2c(N)ncnc21)OCP(=O)(O)O", "note": "[TFV, tenofovir]", "values": [{"measurement": "Pharmacokinetic plasma concentration of TFV", "setting": "[1]; 0.5 hours post-dose", "result": "<LLOQ < (0.500)"}, {"measurement": "Pharmacokinetic plasma concentration of TFV", "setting": "[1]; 1 hour post-dose", "result": "<LLOQ < (0.500)"}, {"measurement": "Pharmacokinetic plasma concentration of TFV", "setting": "[1]; 2 hours post-dose", "result": "0.519 and <LLOQ < (0.500) (4×) and 0.528 and 0.733"}, {"measurement": "Pharmacokinetic plasma concentration of TFV", "setting": "[1]; 2.5 hours post-dose", "result": "0.822 and 0.693 and 0.665 and 0.708 and 0.596 and <LLOQ < (0.500) and 0.959"}, {"measurement": "Pharmacokinetic plasma concentration of TFV", "setting": "[1]; 3 hours post-dose", "result": "0.891 and <LLOQ < (0.500) (2×) and 0.764 and 0.900 and 0.781 and 0.648 and 0.918"}, {"measurement": "Pharmacokinetic plasma concentration of TFV", "setting": "[1]; 4 hours post-dose", "result": "1.140 (2×) and <LLOQ < (0.500) and 0.900 and 0.948 and 0.750 and 0.594 and 0.903"}, {"measurement": "Pharmacokinetic plasma concentration of TFV", "setting": "[1]; 6 hours post-dose", "result": "1.370 and 0.560 and 0.908 and 1.110 and 1.080 and 0.711 and 0.609 and 0.804"}, {"measurement": "Pharmacokinetic plasma concentration of TFV", "setting": "[1]; 10 hours post-dose", "result": "1.300 and 0.526 and 0.695 and 0.800 and 0.652 and 0.516 and 0.558 and 0.659"}, {"measurement": "Pharmacokinetic plasma concentration of TFV", "setting": "[1]; 12 hours post-dose", "result": "1.140 and <LLOQ < (0.500) (4×) and 0.535 and 0.664 and 0.574"}, {"measurement": "Pharmacokinetic plasma concentration of TFV", "setting": "[1]; 15 hours post-dose", "result": "1.040 and <LLOQ < (0.500) (6×) and 0.581"}, {"measurement": "Pharmacokinetic plasma concentration of TFV", "setting": "[1]; 18 hours post-dose", "result": "0.759 and <LLOQ < (0.500) (7×)"}, {"measurement": "Pharmacokinetic plasma concentration of TFV", "setting": "[1]; 24 hours post-dose", "result": "0.599 and <LLOQ < (0.500) (7×)"}, {"measurement": "Pharmacokinetic plasma concentration of TFV", "setting": "[1]; Pre-dose", "result": "<LLOQ < (0.500)"}]}]}
